The text below walks through data of PubChem BioAssay (NCI).

SMILES strings stand for the structures.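 1) Cells in 96-well plates. 2) Compound, 48 h, 5 concentrations. 3) Linear interpolation between surrounding doses. 4) Unreached endpoint = highest concentration. At the TGI there is no net growth.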

Among the test systems are HT29 colon; SK-MEL-2 melanoma; NCI-H23 lung; COLO 205 colon; OVCAR-3 ovarian; CCRF-CEM leukemia; M14 melanoma; SNB-19 CNS; UACC-62 melanoma; SF-539 CNS; UO-31 renal; SK-MEL-28 melanoma; SF-295 CNS; MDA-MB-435; SNB-75 CNS; BT-549 breast; MCF7 breast; SF-268 CNS; IGROV1 ovarian.
Holding throughout (assay): inhibition of tumour cell growth, NCI panel, 48 h

For `COc1c(N2CCCCC2)c2c(=O)c3ccccc3oc2c2cc(C)oc12`, the TGI is 38.6 µM in the test on HT29 colon; 61.6 µM in the test on SK-MEL-2 melanoma; more than 100 µM in the test with NCI-H23 lung; 18.3 µM in the test with COLO 205 colon; more than 100 µM in the test on OVCAR-3 ovarian; more than 100 µM in the test on CCRF-CEM leukemia. For the same compound, the TGI was 53.6 µM in the test with M14 melanoma; more than 100 µM in the test on SNB-19 CNS; 68.3 µM in the test on UACC-62 melanoma; more than 100 µM in the test on SF-539 CNS; 54 µM in the test with UO-31 renal; more than 100 µM in the test with SK-MEL-28 melanoma. For the same compound, the TGI in the test on SF-295 CNS is more than 100 µM; in the test on MDA-MB-435, more than 100 µM; in the test with SNB-75 CNS, 42.9 µM; in the test with BT-549 breast, 97.9 µM; in the test on MCF7 breast, more than 100 µM; in the test with SF-268 CNS, more than 100 µM.
As for `Cc1ccc2c(=O)cc(-c3cc4ccccc4s3)[nH]c2n1`, the TGI in the test with HT29 colon, in the test with SK-MEL-2 melanoma, with NCI-H23 lung, with COLO 205 colon, in the test with OVCAR-3 ovarian and in the test on CCRF-CEM leukemia was more than 100 µM each time. Moreover, the TGI in the test with IGROV1 ovarian is more than 100 µM; in the test with M14 melanoma it was more than 100 µM; in the test on SNB-19 CNS it was more than 100 µM; with UACC-62 melanoma it was more than 100 µM; with UO-31 renal, 0.17 µM; in the test on SK-MEL-28 melanoma, more than 100 µM. Besides, the TGI in the test with SF-295 CNS is more than 100 µM; in the test on MDA-MB-435 it was more than 100 µM; in the test with SNB-75 CNS, 67.6 µM; in the test on BT-549 breast, more than 100 µM; with MCF7 breast, more than 100 µM; with SF-268 CNS, more than 100 µM.
For `C=CC(C)CCC(C/C=C(\C)CCCC(C)C)C(=C)CCCC(C)C` (stereo not given), the TGI in the test on SK-MEL-2 melanoma, in the test with NCI-H23 lung, in the test on COLO 205 colon, in the test with OVCAR-3 ovarian, in the test on CCRF-CEM leukemia and with IGROV1 ovarian was more than 100 µM throughout. Further, the TGI in the test on M14 melanoma, in the test on SNB-19 CNS, with UACC-62 melanoma, in the test with SF-539 CNS, in the test on UO-31 renal and in the test on SK-MEL-28 melanoma was more than 100 µM each time. Also, the TGI in the test with SF-295 CNS, in the test with MDA-MB-435, in the test on SNB-75 CNS, with BT-549 breast, in the test with MCF7 breast and with SF-268 CNS was more than 100 µM throughout.
Consider `COc1ccc(OC)c2sc(N3C(=O)/C(=C/c4ccc(SC)cc4)N=C3c3ccccc3)nc12`, for which the TGI in the test with HT29 colon was 53.3 µM; in the test with SK-MEL-2 melanoma it was 42.7 µM; in the test with COLO 205 colon it was more than 100 µM; in the test on OVCAR-3 ovarian, 53.6 µM; in the test on CCRF-CEM leukemia it was 22.2 µM; in the test on IGROV1 ovarian, more than 100 µM. For the same compound, the TGI in the test with M14 melanoma is 46.1 µM; in the test on SNB-19 CNS it was 68.5 µM; in the test on UACC-62 melanoma, more than 100 µM; in the test on SF-539 CNS, 58.7 µM; in the test on UO-31 renal it was 63.7 µM; with SK-MEL-28 melanoma, more than 100 µM. Also, the TGI was more than 100 µM in the test on SF-295 CNS; 37.6 µM in the test on MDA-MB-435; 43.6 µM with SNB-75 CNS; 88 µM with BT-549 breast; 48.1 µM with MCF7 breast; 88.1 µM in the test on SF-268 CNS.
Take `CSC1=NC(=O)CCN1C1OCC(OC(C)=O)C(OC(C)=O)C1OC(C)=O` (stereo not given): the TGI with HT29 colon is more than 31.6 µM; in the test with SK-MEL-2 melanoma, 22.9 µM; with NCI-H23 lung, more than 31.6 µM; in the test on COLO 205 colon it was more than 31.6 µM; with OVCAR-3 ovarian it was 18.6 µM; in the test with CCRF-CEM leukemia it was more than 31.6 µM. The TGI in the test with IGROV1 ovarian is 23 µM; with SNB-19 CNS, more than 31.6 µM; in the test on UACC-62 melanoma, more than 100 µM; in the test with SF-539 CNS, 28.7 µM; in the test on UO-31 renal, 57.8 µM; in the test on SK-MEL-28 melanoma, 25.4 µM. The TGI in the test on SF-295 CNS was more than 31.6 µM; in the test on MDA-MB-435 it was more than 31.6 µM; in the test on SNB-75 CNS it was 22.7 µM; in the test on BT-549 breast it was 25 µM; with MCF7 breast, more than 100 µM; in the test on SF-268 CNS, 29.3 µM.
`O=C(O)COc1cc(-c2ccccc2F)nc2cc3c(cc12)OCO3`: the TGI in the test with HT29 colon, in the test with SK-MEL-2 melanoma, with NCI-H23 lung, in the test on COLO 205 colon, in the test on OVCAR-3 ovarian and in the test with CCRF-CEM leukemia was more than 100 µM in each case. The TGI in the test with IGROV1 ovarian, with M14 melanoma, with UACC-62 melanoma, with SF-539 CNS, with SK-MEL-28 melanoma and in the test with SF-295 CNS was more than 100 µM throughout. Besides, the TGI in the test on MDA-MB-435, in the test on SNB-75 CNS, with BT-549 breast, with MCF7 breast and in the test with SF-268 CNS was more than 100 µM each time.
In the case of `CC1(C)CC(=O)c2c([nH]c(=S)c(C#N)c2-c2ccc(Br)cc2)C1`, the TGI in the test on HT29 colon is more than 100 µM; with SK-MEL-2 melanoma, 76.6 µM; with NCI-H23 lung it was more than 100 µM; in the test on OVCAR-3 ovarian it was more than 100 µM; in the test on CCRF-CEM leukemia, more than 100 µM; in the test on IGROV1 ovarian it was more than 100 µM. Further, the TGI in the test with M14 melanoma, in the test on SNB-19 CNS, with UACC-62 melanoma, with SF-539 CNS, in the test on UO-31 renal and in the test on SK-MEL-28 melanoma was more than 100 µM each time. For the same compound, the TGI in the test with SF-295 CNS, in the test on MDA-MB-435, in the test on SNB-75 CNS, in the test on BT-549 breast, in the test on MCF7 breast and in the test on SF-268 CNS was more than 100 µM in each case.
